Results published in US12441703B2, “Carboxamides as modulators of sodium channels” (VERTEX PHARMACEUTICALS INCORPORATED, priority 2019, dated 2025).

These compounds were tested against human NaV 1.8 (Homo sapiens, UniProt Q9Y5Y9) (assay: E-VIPR assay for detecting and measuring NaV inhibition properties). Conditions: E-VIPR assay conducted in the presence of human serum; HEK cells expressing truncated human NaV 1.8; read-out: IC50.
Assay type: cell-based
Excerpt: Sodium ion channels are voltage-dependent proteins that can be activated by inducing membrane voltage changes by applying electric fields. The electrical stimulation instrument and methods of use, referred to as E-VIPR, are described in International Publication No. WO 2002/008748 A3 and C.-J. Huang et al. Characterization of voltage-gated sodium channel blockers by electrical stimulation and fluorescence detection of membrane potential, 24 Nature Biotech. 439-46 (2006), both of which are incorporated by reference in their entirety. The instrument comprises a microtiter plate handler, an optical system for exciting the coumarin dye while simultaneously recording the coumarin and oxonol emissions, a waveform generator, a current- or voltage-controlled amplifier, and parallel electrode pairs that are inserted into assay plate wells. Under integrated computer control, this instrument passes user-programmed electrical stimulus protocols to cells within the wells of the microtiter plate.
16-20 hours prior to running the assay on E-VIPR, HEK cells expressing a truncated form of human NaV 1.8 with full channel activity were seeded into microtiter 384-well plates, pre-coated with matrigel, at a density of 25,000 cells per well. 2.5-5% KIR2.1 Bacmam virus was added to the final cell suspension before seeding into cell plates. HEK cells were grown in Dulbecco's Modified Eagle's Medium (DMEM) supplemented with 10% FBS (Fetal Bovine Serum, qualified; Sigma #F4135), 1% NEAA (Non-Essential Amino Acids, Gibco #11140), 1% HEPES (Gibco #15630), 1% Pen-Strep (Penicillin-Streptomycin; Gibco #15140) and 5 μg/ml Blasticidin (Gibco #R210-01). Cells were expanded in vented cap cell culture flasks, with 90-95% humidity and 5% CO2.
Compound Loading Buffer (2× concentration): Na/TMA Cl Bath1 Buffer containing HS (omitted in experiments run in the absence of human serum (HS)) 50%, VABSC-1 1 mM, BSA 0.2 mg/ml (in Bath-1), KCl 9 mM, DMSO 0.75%.
• 1) To reach the final concentration in each well, 400 nL of each compound was pre-spotted (in neat DMSO) into polypropylene compound plates at 250× desired final concentration from an intermediate stock concentration of 0.075 mM, in an 11 point dose response, 3-fold dilution, resulting in a top dose of 300 nM final concentration in the cell plate. Vehicle control (neat DMSO), and positive control (an established NaV1.8 inhibitor, 25 μM final in assay in DMSO) were added manually to the outermost columns of each plate respectively. The compound plate was backfilled with 45 μL per well of Compound Loading Buffer resulting in a 250 fold dilution of compound following a 1:1 transfer of compound into the cell plate (see Step 6). Final DMSO concentration for all wells in the assay was 0.625% (0.75% DMSO was supplemented to the Compound Loading Buffer for a final DMSO concentration of 0.625%). This assay dilution protocol was adjusted to enable a higher dose range to be tested in the presence of HS or if the final assay volume was altered. • 2) Hexyl Dye Solution was prepared. • 3) Cell plates were prepared. On the day of the assay, the media was aspirated, and the cells were washed three times with 80 μL of Bath-1 buffer, maintaining 25 μL residual volume in each well. • 4) 25 μL per well of Hexyl Dye Solution was dispensed into the cell plates. The cells were incubated for 20 minutes at room temperature or ambient conditions in darkness. • 5) 45 μL per well of Compound Loading Buffer was dispensed into compound plates. • 6) The cell plates were washed three times with 80 μL per well of Bath-1 Buffer, leaving 25 µL of residual volume. Then 25 μL per well from compound plate was transferred to each cell plate. The mixture was incubated for 30 minutes at room temperature/ambient conditions. • 7) The cell plate containing compound was read on E-VIPR using the current-controlled amplifier to deliver stimulation wave pulses using a symmetrical biphasic waveform. […]

Sequence of human NaV 1.8 (Q9Y5Y9 whole entry, looked up, the tested form may be a part): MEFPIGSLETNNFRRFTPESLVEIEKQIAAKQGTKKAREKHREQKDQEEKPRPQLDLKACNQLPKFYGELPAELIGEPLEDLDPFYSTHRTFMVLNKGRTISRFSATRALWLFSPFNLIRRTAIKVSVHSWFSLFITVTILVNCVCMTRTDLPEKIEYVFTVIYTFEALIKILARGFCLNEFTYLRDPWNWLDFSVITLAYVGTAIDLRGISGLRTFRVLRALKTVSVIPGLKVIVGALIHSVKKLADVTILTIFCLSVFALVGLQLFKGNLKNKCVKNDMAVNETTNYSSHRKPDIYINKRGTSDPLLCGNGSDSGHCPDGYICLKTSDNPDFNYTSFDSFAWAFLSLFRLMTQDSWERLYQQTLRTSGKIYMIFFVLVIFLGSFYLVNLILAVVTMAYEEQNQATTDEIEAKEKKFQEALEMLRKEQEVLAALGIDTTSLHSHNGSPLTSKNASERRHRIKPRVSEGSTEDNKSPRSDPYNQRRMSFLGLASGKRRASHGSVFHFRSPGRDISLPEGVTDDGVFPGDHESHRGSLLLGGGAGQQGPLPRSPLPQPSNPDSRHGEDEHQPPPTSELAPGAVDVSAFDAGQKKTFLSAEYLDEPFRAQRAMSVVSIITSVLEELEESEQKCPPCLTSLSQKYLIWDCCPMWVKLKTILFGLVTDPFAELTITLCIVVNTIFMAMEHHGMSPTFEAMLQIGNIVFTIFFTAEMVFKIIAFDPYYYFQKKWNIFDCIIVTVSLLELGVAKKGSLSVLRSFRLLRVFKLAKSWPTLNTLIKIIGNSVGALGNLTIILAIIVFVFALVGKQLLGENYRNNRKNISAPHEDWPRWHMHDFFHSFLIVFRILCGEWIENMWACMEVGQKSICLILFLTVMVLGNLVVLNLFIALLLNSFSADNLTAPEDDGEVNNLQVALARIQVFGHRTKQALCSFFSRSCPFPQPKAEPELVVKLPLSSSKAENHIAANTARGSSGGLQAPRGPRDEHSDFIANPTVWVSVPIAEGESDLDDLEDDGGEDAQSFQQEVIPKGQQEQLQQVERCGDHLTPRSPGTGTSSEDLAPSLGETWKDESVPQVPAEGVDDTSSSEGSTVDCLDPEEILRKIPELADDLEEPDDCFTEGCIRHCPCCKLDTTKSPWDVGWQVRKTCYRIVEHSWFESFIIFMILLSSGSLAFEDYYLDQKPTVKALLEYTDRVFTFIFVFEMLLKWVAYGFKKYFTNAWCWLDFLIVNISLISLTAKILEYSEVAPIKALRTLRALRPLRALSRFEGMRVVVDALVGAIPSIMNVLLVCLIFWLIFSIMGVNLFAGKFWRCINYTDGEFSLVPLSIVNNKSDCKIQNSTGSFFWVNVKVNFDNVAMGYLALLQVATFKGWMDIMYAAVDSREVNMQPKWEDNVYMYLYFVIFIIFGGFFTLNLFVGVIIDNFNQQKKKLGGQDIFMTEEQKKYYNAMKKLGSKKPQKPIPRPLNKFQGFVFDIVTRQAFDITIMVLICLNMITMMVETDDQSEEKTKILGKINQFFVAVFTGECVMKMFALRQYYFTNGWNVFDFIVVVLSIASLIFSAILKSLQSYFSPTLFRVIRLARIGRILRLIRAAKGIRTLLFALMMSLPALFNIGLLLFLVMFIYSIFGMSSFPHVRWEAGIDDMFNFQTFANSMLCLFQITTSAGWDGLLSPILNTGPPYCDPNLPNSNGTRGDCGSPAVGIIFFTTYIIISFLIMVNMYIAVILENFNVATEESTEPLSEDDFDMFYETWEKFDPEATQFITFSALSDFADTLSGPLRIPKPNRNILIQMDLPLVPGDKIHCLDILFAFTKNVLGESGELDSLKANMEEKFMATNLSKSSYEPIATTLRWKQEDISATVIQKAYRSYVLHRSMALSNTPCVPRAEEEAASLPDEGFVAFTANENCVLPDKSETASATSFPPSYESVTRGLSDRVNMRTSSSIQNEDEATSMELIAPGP

Compound | IC50 [nM]
NC(=O)c1cc(NC(=O)c2c(Oc3cccc(C4CCCCC4)c3)ccc(C(F)(F)F)c2F)ccn1 [Compound 40, 4-[[6-(3-cyclohexylphenoxy)-2-fluoro-3-(trifluoromethyl)benzoyl]amino]pyridine-2-carboxamide] | > 3000
NC(=O)c1cc(NC(=O)c2c(Oc3ccc(OC(F)(F)F)cc3C3CC3)ccc(C(F)(F)F)c2F)ccn1 [Compound 41, 4-[[6-[2-cyclopropyl-4-(trifluoromethoxy)phenoxy]-2-fluoro-3-(trifluoromethyl)benzoyl]amino]pyridine-2-carboxamide] | 10
Cc1c(Oc2ccc(C(F)(F)F)c(F)c2C(=O)Nc2ccnc(C(N)=O)c2)ccc(F)c1F [Compound 42, 4-[[6-(3,4-difluoro-2-methyl-phenoxy)-2-fluoro-3-(trifluoromethyl)benzoyl]amino]pyridine-2-carboxamide] | 8
COc1cc(Cl)ccc1Oc1ccc(C(F)(F)F)c(F)c1C(=O)Nc1ccnc(C(N)=O)c1 [Compound 43, 4-[[6-(4-chloro-2-methoxy-phenoxy)-2-fluoro-3-(trifluoromethyl)benzoyl]amino]pyridine-2-carboxamide] | 13
COc1cc(C(F)(F)C(F)(F)F)ccc1Oc1ccc(C(F)(F)F)c(F)c1C(=O)Nc1ccnc(C(N)=O)c1 [Compound 44, 4-[[2-fluoro-6-[2-methoxy-4-(1,1,2,2,2-pentafluoroethyl)phenoxy]-3-(trifluoromethyl)benzoyl]amino]pyridine-2-carboxamide] | 22
COc1cc(C)cc(OC)c1Oc1ccc(C(F)(F)F)c(F)c1C(=O)Nc1ccnc(C(N)=O)c1 [Compound 45, 4-[[6-(2,6-dimethoxy-4-methyl-phenoxy)-2-fluoro-3-(trifluoromethyl)benzoyl]amino]pyridine-2-carboxamide] | > 3000
NC(=O)c1cc(NC(=O)c2c(Oc3c(F)cc(F)cc3F)ccc(C(F)(F)F)c2F)ccn1 [Compound 46, 4-[[2-fluoro-3-(trifluoromethyl)-6-(2,4,6-trifluorophenoxy)benzoyl]amino]pyridine-2-carboxamide] | > 3000
Cc1cc(Cl)cc(Cl)c1Oc1ccc(C(F)(F)F)c(F)c1C(=O)Nc1ccnc(C(N)=O)c1 [Compound 47, 4-[[6-(2,4-dichloro-6-methyl-phenoxy)-2-fluoro-3-(trifluoromethyl)benzoyl]amino]pyridine-2-carboxamide] | 1400
Cc1c(F)ccc(Oc2ccc(C(F)(F)F)c(F)c2C(=O)Nc2ccnc(C(N)=O)c2)c1C [Compound 48, 4-[[2-fluoro-6-(4-fluoro-2,3-dimethyl-phenoxy)-3-(trifluoromethyl)benzoyl]amino]pyridine-2-carboxamide] | 50
NC(=O)c1cc(NC(=O)c2c(Oc3ccc(F)c(F)c3F)ccc(C(F)(F)F)c2F)ccn1 [Compound 49, 4-[[2-fluoro-3-(trifluoromethyl)-6-(2,3,4-trifluorophenoxy)benzoyl]amino]pyridine-2-carboxamide] | 42
Cc1cc(Cl)ccc1Oc1ccc(C(F)(F)F)c(F)c1C(=O)Nc1ccnc(C(N)=O)c1 [Compound 50, 4-[[6-(4-chloro-2-methyl-phenoxy)-2-fluoro-3-(trifluoromethyl)benzoyl]amino]pyridine-2-carboxamide] | 33
NC(=O)c1cc(NC(=O)c2c(Oc3ccc(Cl)cc3F)ccc(C(F)(F)F)c2F)ccn1 [Compound 51, 4-[[6-(4-chloro-2-fluoro-phenoxy)-2-fluoro-3-(trifluoromethyl)benzoyl]amino]pyridine-2-carboxamide] | 200
COc1cc(F)ccc1Oc1ccc(C(F)(F)F)c(OC)c1C(=O)Nc1ccnc(C(N)=O)c1 [Compound 52, 4-[[6-(4-fluoro-2-methoxy-phenoxy)-2-methoxy-3-(trifluoromethyl)benzoyl]amino]pyridine-2-carboxamide] | 170
COc1c(C(F)(F)F)ccc(Oc2ccc(OC(C)C)cc2)c1C(=O)Nc1ccnc(C(N)=O)c1 [Compound 53, 4-[[6-(4-isopropoxyphenoxy)-2-methoxy-3-(trifluoromethyl)benzoyl]amino]pyridine-2-carboxamide] | 110
COc1ccc(Cl)cc1Oc1ccc(C(F)(F)F)c(OC)c1C(=O)Nc1ccnc(C(N)=O)c1 [Compound 54, 4-[[6-(5-chloro-2-methoxy-phenoxy)-2-methoxy-3-(trifluoromethyl)benzoyl]amino]pyridine-2-carboxamide] | 510
COc1c(C(F)(F)F)ccc(Oc2ccc(F)c(F)c2)c1C(=O)Nc1ccnc(C(N)=O)c1 [Compound 55, 4-[[6-(3,4-difluorophenoxy)-2-methoxy-3-(trifluoromethyl)benzoyl]amino]pyridine-2-carboxamide] | 420
COc1c(C(F)(F)F)ccc(Oc2ccc(OC(C)C)c(Cl)c2)c1C(=O)Nc1ccnc(C(N)=O)c1 [Compound 56, 4-[[6-(3-chloro-4-isopropoxy-phenoxy)-2-methoxy-3-(trifluoromethyl)benzoyl]amino]pyridine-2-carboxamide] | 48
COc1c(C(F)(F)F)ccc(Oc2ccc(F)c(Cl)c2)c1C(=O)Nc1ccnc(C(N)=O)c1 [Compound 57, 4-[[6-(3-chloro-4-fluoro-phenoxy)-2-methoxy-3-(trifluoromethyl)benzoyl]amino]pyridine-2-carboxamide] | 350
COc1c(Oc2ccc(C(F)(F)F)c(OC)c2C(=O)Nc2ccnc(C(N)=O)c2)ccc(F)c1F [Compound 58, 4-[[6-(3,4-difluoro-2-methoxy-phenoxy)-2-methoxy-3-(trifluoromethyl)benzoyl]amino]pyridine-2-carboxamide] | 150
COc1c(C(F)(F)F)ccc(Oc2ccc(F)cc2Cl)c1C(=O)Nc1ccnc(C(N)=O)c1 [Compound 59, 4-[[6-(2-chloro-4-fluoro-phenoxy)-2-methoxy-3-(trifluoromethyl)benzoyl]amino]pyridine-2-carboxamide] | 100
COc1c(C(F)(F)F)ccc(Oc2ccc(OC3CCCCC3)cc2)c1C(=O)Nc1ccnc(C(N)=O)c1 [Compound 60, 4-[[6-[4-(cyclohexoxy)phenoxy]-2-methoxy-3-(trifluoromethyl)benzoyl]amino]pyridine-2-carboxamide] | 520
COc1c(C(F)(F)F)ccc(Oc2ccc(F)c(C)c2)c1C(=O)Nc1ccnc(C(N)=O)c1 [Compound 61, 4-[[6-(4-fluoro-3-methyl-phenoxy)-2-methoxy-3-(trifluoromethyl)benzoyl]amino]pyridine-2-carboxamide] | 490
COc1c(C(F)(F)F)ccc(Oc2ccc(F)cc2F)c1C(=O)Nc1ccnc(C(N)=O)c1 [Compound 62, 4-[[6-(2,4-difluorophenoxy)-2-methoxy-3-(trifluoromethyl)benzoyl]amino]pyridine-2-carboxamide] | 440
COc1c(C(F)(F)F)ccc(Oc2ccccc2)c1C(=O)Nc1ccnc(C(N)=O)c1 [Compound 63, 4-[[2-methoxy-6-phenoxy-3-(trifluoromethyl)benzoyl]amino]pyridine-2-carboxamide] | 1800
COc1c(C(F)(F)F)ccc(Oc2ccc(F)cc2C)c1C(=O)Nc1ccnc(C(N)=O)c1 [Compound 64, 4-[[6-(4-fluoro-2-methyl-phenoxy)-2-methoxy-3-(trifluoromethyl)benzoyl]amino]pyridine-2-carboxamide] | 63
COc1c(C(F)(F)F)ccc(Oc2ccc(OC(F)(F)F)c(F)c2)c1C(=O)Nc1ccnc(C(N)=O)c1 [Compound 65, 4-[[6-[3-fluoro-4-(trifluoromethoxy)phenoxy]-2-methoxy-3-(trifluoromethyl)benzoyl]amino]pyridine-2-carboxamide] | 36
